According to ChEMBL document CHEMBL4049444, “Topical Intestinal Aminoimidazole Agonists of G-Protein-Coupled Bile Acid Receptor 1 Promote Glucagon Like Peptide-1 Secretion and Improve Glucose Tolerance” (J Med Chem, 2017):
≈ marks a conversion by molar mass, not a printed value.

Assays:
in vivo = conditions: C57BL6/J, mouse, faeces, po, 20 mg/kg
[1] = Half life in C57BL6/J mouse at 20 mg/kg, po by LC-MS/MS analysis; assay type: ADME, organism-based; conditions: in vivo
[2] = Half life in CD-1 mouse liver microsomes at 1 uM in presence of NADPH by LC-MS/MS analysis; assay type: ADME, microsome
physchem = conditions: PBS/MeOH
[3] = Apparent permeability from basolateral to apical side in human Caco2 cells assessed as drug recovery at 10 uM after 1 hr by LC-MS/MS analysis; assay type: ADME, cell-based; conditions: Caco-2, read-out: Drug recovery
Ileum = experiment: Drug uptake in C57BL6 mouse ileum at 20 mg/kg, po after 8 hrs by LC-MS/MS; assay type: ADME, organism-based; conditions: in vivo
[4] = Cmax in C57BL6/J mouse gallbladder at 20 mg/kg, po by LC-MS/MS analysis; assay type: ADME, organism-based, Gall bladder; set-up: dose 20 mg/kg, route oral
[5] = Apparent permeability from apical to basolateral side in human Caco2 cells at 10 uM after 1 hr by LC-MS/MS analysis; assay type: ADME, cell-based; conditions: Caco-2
Colon = experiment: Drug uptake in C57BL6 mouse colon at 20 mg/kg, po after 8 hrs by LC-MS/MS; assay type: ADME, organism-based; conditions: in vivo
[6] = AUC in C57BL6/J mouse at 20 mg/kg, po by LC-MS/MS analysis; assay type: ADME, organism-based; conditions: in vivo
[7] = 1-octanol/phosphate buffer solution partition coefficient, log D of the compound at pH 7.4 for 2 hrs by LC-MS/MS method; assay type: physicochemical
[8] = Apparent permeability from basolateral to apical side in human Caco2 cells at 10 uM after 1 hr by LC-MS/MS analysis; assay type: ADME, cell-based; conditions: Caco-2
[9] = Cmax in C57BL6/J mouse plasma at 20 mg/kg, po by LC-MS/MS analysis; assay type: ADME, organism-based; set-up: dose 20 mg/kg, route oral
[10] = Tmax in C57BL6/J mouse at 20 mg/kg, po by LC-MS/MS analysis; assay type: ADME, organism-based; conditions: in vivo
[11] = Apparent permeability from apical to basolateral side in human Caco2 cells assessed as drug recovery at 10 uM after 1 hr by LC-MS/MS analysis; assay type: ADME, cell-based; conditions: Caco-2, read-out: Drug recovery
[12] = Cmax in C57BL6/J mouse liver at 20 mg/kg, po by LC-MS/MS analysis; assay type: ADME, organism-based; set-up: dose 20 mg/kg, route oral
[13] = Apparent permeability from apical to basolateral side in human Caco2 cells assessed as drug recovery at 5 uM after 1 hr by LC-MS/MS analysis; assay type: ADME, cell-based; conditions: Caco-2, read-out: Drug recovery
[14] = Apparent permeability from basolateral to apical side in human Caco2 cells at 5 uM after 1 hr by LC-MS/MS analysis; assay type: ADME, cell-based; conditions: Caco-2
[15] = Apparent permeability from basolateral to apical side in human Caco2 cells assessed as drug recovery at 5 uM after 1 hr by LC-MS/MS analysis; assay type: ADME, cell-based; conditions: Caco-2, read-out: Drug recovery
[16] = Apparent permeability from apical to basolateral side in human Caco2 cells at 5 uM after 1 hr by LC-MS/MS analysis; assay type: ADME, cell-based; conditions: Caco-2

For `COc1ccc(N(C)c2cnc(SCc3c(F)cc(OCCCS(=O)(=O)O)cc3F)n2-c2ccc(F)cc2)cc1OC.N`, the dose excreted at 24 h (in vivo) was 100%, the half-life [1] was 317 min and the half-life at 1 µM [2] was 1.2 min. For the same compound, the solubility at 24 h (physchem) was greater than 200 µM, the recovery at 1 h, 10 µM [3] was 102% and the Drug uptake (Ileum) was “Active”. The Cmax [4] was 11000 nM, the Papp A→B at 1 h, 10 µM [5] was 0.031 ×10⁻⁶ cm/s and the Drug uptake (Colon) was “Active”. It also gave an AUC [6] of 96.2 ng·h/mL, a logD at 2 h [7] of 0.8 and a Papp B→A at 1 h, 10 µM [8] of 19 ×10⁻⁶ cm/s. For the same compound, the Cmax [9] was 102 nM, the Tmax [10] was 45 min and the recovery at 1 h, 10 µM [11] was 80.1%. It also gave a Cmax [12] of 385 nM.

`COc1ccc(N(C)c2cnc(SCc3c(F)cc(OCCC[N+]45CCN(CC4)CC5)cc3F)n2-c2ccc(F)cc2)cc1OC.O=C[O-]` showed a recovery at 1 h, 10 µM [3] of 99.6%, a Papp A→B at 1 h, 10 µM [5] of 0.016 ×10⁻⁶ cm/s and a logD at 2 h [7] of 0.9. It also gave a Papp B→A at 1 h, 10 µM [8] of 0.22 ×10⁻⁶ cm/s and a recovery at 1 h, 10 µM [11] of 69.3%.

`COc1ccc(N(C)c2cnc(SCc3c(F)cccc3F)n2-c2ccc(F)cc2)cc1OC` gave a recovery at 1 h, 5 µM [13] of 84.4%, a half-life at 1 µM [2] of 0.7 min and a solubility at 24 h (physchem) of 6.3 µM (≈ 3.06 µg/mL). It also gave a logD at 2 h [7] of 3.5, a Papp B→A at 1 h, 5 µM [14] of 5.47 ×10⁻⁶ cm/s and a recovery at 1 h, 5 µM [15] of 106%. The Papp A→B at 1 h, 5 µM [16] was 5.32 ×10⁻⁶ cm/s.

Compound `COc1ccc(N(C)c2cnc(SCc3c(F)cc(C#CC[N+](C)(C)C)cc3F)n2-c2ccc(F)cc2)cc1OC.[I-]` has a Papp A→B at 1 h, 10 µM [5] of 0.08 ×10⁻⁶ cm/s and a Papp B→A at 1 h, 10 µM [8] of 0.24 ×10⁻⁶ cm/s.

`COc1ccc(N(C)c2cnc(SCc3c(F)cc(C#CC[N+](C)(C)C)cc3F)n2-c2ccc(F)cc2)cc1OC.O=C[O-]` showed a dose excreted at 24 h (in vivo) of 88%, a half-life [1] of 97 min and a recovery at 1 h, 10 µM [3] of 93.4%. It also gave a Cmax [4] of 9030 nM, an AUC [6] of 48.5 ng·h/mL and a logD at 2 h [7] of 1. The Cmax [9] was 100 nM, the Tmax [10] was 15 min and the recovery at 1 h, 10 µM [11] was 69.8%.
